The results in this text go back to ChEMBL document CHEMBL5291721, “A preclinical secondary pharmacology resource illuminates target-adverse drug reaction associations of marketed drugs” (Nat Commun, 2023).

Molecules are shown by their SMILES.

A word on the AC50: it is the concentration at which the activity in the assay is half-maximal.

Some targets named below: Adenosine receptor A2a (Homo sapiens, UniProt P29274); Melanocortin receptor 3 (Homo sapiens, UniProt P41968); D(3) dopamine receptor (Homo sapiens, UniProt P35462).
The next assay concerns the target T1, Adenosine receptor A1 (Homo sapiens, UniProt P30542).
T1 sequence (P30542 whole entry): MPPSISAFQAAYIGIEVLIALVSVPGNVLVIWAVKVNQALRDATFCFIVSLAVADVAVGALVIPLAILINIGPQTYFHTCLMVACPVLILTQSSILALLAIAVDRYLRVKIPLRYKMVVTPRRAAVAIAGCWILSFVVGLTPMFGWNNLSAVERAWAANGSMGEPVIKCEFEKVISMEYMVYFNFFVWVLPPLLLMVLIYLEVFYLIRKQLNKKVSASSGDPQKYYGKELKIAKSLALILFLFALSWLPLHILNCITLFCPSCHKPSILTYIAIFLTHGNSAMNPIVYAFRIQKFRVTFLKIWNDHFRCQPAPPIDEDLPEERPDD

The next assay addresses T2, Adenosine receptor A3 (Homo sapiens, UniProt P0DMS8).
T2 sequence (P0DMS8 whole entry): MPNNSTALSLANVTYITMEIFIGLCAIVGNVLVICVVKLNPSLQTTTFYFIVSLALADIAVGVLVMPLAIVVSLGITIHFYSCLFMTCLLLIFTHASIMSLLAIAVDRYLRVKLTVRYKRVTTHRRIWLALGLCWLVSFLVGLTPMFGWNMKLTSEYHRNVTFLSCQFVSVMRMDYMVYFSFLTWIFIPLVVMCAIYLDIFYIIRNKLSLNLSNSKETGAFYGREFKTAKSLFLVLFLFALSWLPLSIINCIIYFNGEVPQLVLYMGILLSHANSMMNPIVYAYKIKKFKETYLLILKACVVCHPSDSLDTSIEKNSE

Assay [1] concerns the target T3, Cholecystokinin receptor type A (Homo sapiens, UniProt P32238).
T3 sequence (P32238 whole entry): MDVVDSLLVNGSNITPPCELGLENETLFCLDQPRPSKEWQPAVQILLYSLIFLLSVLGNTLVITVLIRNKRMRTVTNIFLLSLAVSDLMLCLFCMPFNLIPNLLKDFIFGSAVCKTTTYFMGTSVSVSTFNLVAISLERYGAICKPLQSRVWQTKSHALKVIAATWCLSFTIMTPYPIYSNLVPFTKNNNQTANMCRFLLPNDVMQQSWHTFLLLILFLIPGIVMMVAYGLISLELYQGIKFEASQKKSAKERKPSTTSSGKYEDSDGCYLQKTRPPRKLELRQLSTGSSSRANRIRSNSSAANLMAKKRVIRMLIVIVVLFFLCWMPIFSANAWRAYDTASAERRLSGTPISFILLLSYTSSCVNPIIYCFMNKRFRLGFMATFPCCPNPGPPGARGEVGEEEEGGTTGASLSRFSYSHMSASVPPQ

The next assay addresses D(1A) dopamine receptor (Homo sapiens, UniProt P21728). It is filed as functional, cell-based.
For assay [2], the target named is T4, 5-hydroxytryptamine receptor 1A (Homo sapiens, UniProt P08908).
T4 sequence (P08908 whole entry): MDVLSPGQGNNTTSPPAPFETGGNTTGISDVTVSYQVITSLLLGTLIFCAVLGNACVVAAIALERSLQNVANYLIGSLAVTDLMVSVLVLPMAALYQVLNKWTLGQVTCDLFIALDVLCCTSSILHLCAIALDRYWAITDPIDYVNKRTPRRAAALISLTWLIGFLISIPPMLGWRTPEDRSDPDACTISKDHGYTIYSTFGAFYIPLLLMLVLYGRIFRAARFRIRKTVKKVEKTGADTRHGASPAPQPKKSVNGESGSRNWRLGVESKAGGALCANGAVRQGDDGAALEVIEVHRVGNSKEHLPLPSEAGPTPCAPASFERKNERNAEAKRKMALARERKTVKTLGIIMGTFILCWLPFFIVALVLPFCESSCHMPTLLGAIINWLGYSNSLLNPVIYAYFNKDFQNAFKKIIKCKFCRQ
It is filed as functional, cell-based.

Assay [3] has as its target Voltage-gated inwardly rectifying potassium channel KCNH2 (Homo sapiens, UniProt Q12809). In kind it is functional. To be noted: read-out: AC50.
In assay [4] the target is T5, Equilibrative nucleoside transporter 1 (Homo sapiens, UniProt Q99808).
T5 sequence (Q99808 whole entry): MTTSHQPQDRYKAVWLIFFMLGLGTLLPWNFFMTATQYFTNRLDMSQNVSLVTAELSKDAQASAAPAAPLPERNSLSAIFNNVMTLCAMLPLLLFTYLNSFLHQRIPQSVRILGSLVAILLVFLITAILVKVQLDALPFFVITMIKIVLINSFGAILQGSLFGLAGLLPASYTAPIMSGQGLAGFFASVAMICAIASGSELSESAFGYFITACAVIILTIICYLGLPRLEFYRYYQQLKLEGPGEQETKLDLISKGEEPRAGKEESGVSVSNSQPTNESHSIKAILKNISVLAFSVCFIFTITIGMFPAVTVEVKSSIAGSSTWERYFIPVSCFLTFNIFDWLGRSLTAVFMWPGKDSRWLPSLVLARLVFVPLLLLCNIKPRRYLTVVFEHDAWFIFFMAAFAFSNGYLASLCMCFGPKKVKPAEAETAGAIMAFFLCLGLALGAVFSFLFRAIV

Assay [5] has as its target Sodium-dependent noradrenaline transporter (Homo sapiens, UniProt P23975).
Assay [6] has as its target cGMP-inhibited 3',5'-cyclic phosphodiesterase 3A (Homo sapiens, UniProt Q14432). It is filed as functional.
Also: assay procedure not described here.

D(3) dopamine receptor, sequence (P35462 whole entry): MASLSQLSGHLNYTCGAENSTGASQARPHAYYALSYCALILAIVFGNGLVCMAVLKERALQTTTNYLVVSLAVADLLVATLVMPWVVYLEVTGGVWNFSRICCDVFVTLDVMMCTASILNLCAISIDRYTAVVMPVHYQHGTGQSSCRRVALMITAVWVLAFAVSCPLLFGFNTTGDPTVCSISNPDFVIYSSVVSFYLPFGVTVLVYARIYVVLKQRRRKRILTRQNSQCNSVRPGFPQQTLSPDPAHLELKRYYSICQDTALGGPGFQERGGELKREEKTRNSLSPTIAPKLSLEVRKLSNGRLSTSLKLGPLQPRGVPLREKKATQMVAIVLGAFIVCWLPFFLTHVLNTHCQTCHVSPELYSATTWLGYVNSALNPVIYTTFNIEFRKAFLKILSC
D(1A) dopamine receptor, sequence (P21728 whole entry): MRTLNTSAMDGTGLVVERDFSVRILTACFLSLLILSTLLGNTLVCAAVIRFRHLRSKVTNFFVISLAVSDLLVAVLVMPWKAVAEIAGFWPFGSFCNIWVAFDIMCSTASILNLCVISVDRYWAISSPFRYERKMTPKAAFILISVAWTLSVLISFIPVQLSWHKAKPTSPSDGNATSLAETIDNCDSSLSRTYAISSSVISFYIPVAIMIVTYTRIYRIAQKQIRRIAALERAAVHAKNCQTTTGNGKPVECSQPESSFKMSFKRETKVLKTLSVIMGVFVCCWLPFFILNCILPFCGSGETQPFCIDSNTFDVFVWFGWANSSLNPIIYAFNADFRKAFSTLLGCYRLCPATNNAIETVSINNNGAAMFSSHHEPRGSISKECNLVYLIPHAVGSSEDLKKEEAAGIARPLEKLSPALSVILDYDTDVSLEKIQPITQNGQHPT
cGMP-inhibited 3',5'-cyclic phosphodiesterase 3A, sequence (Q14432 whole entry): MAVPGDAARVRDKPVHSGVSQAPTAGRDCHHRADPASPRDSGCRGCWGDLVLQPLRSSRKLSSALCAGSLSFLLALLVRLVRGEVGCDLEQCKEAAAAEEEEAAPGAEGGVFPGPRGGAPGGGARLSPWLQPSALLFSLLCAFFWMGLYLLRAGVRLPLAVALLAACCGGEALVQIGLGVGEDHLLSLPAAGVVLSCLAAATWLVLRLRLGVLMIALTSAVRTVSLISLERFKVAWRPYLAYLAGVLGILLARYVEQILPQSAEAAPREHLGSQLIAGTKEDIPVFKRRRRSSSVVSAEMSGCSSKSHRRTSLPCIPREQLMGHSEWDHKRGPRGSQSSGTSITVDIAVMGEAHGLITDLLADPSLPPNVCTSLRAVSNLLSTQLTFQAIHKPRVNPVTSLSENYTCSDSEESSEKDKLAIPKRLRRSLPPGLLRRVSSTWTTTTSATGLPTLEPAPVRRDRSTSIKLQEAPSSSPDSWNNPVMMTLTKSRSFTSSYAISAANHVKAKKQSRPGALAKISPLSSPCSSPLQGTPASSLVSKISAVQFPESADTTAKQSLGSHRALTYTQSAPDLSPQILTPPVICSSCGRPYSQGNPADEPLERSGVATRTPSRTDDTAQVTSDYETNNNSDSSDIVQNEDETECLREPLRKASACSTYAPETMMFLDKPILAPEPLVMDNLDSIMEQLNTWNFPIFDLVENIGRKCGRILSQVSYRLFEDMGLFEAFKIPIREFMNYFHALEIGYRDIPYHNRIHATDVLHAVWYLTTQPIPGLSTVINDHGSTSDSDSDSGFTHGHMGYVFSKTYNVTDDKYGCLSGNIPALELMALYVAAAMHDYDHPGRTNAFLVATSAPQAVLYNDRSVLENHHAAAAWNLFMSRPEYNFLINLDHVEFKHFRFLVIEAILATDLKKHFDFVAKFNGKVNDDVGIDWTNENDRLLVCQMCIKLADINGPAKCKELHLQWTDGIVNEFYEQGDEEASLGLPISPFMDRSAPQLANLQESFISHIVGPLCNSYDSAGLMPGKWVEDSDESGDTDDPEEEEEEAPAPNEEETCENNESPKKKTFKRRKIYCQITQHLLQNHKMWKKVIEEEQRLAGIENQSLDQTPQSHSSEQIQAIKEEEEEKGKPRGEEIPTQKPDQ
Sodium-dependent noradrenaline transporter, sequence (P23975 whole entry): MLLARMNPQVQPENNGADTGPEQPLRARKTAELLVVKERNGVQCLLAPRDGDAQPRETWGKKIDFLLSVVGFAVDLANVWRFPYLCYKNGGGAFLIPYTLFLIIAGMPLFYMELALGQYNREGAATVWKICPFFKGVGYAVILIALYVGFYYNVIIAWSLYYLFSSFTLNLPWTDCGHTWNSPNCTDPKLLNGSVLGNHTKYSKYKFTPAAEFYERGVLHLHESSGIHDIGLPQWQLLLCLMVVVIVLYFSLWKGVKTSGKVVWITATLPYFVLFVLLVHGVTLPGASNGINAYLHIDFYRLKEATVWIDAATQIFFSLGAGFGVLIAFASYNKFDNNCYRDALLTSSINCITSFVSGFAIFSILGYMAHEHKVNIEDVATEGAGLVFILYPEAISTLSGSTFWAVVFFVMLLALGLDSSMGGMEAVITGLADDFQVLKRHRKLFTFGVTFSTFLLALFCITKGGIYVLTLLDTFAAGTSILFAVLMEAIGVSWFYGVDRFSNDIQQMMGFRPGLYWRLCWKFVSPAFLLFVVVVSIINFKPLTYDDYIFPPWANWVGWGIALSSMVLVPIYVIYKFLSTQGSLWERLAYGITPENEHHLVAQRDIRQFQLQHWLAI
Adenosine receptor A2a, sequence (P29274 whole entry): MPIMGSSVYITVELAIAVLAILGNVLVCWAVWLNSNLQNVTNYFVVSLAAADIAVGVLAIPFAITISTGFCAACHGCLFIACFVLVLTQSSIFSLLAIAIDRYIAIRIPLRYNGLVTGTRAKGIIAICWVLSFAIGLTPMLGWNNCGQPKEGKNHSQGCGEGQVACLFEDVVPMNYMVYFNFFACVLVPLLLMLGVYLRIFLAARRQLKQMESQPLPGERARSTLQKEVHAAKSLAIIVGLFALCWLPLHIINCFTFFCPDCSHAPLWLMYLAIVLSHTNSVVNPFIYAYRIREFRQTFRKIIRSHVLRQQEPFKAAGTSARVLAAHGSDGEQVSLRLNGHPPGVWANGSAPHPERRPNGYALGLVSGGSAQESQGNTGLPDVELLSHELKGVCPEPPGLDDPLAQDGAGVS
Melanocortin receptor 3, sequence (P41968 whole entry): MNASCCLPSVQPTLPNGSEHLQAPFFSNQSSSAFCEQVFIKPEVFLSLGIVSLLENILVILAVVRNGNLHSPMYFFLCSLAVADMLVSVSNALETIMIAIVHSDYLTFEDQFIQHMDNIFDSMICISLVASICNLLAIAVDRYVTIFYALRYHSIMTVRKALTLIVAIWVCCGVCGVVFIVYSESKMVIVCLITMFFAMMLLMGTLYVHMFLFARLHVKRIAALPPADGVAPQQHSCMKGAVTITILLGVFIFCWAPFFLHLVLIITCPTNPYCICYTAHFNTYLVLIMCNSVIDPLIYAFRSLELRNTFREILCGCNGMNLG
Voltage-gated inwardly rectifying potassium channel KCNH2, sequence (Q12809 whole entry): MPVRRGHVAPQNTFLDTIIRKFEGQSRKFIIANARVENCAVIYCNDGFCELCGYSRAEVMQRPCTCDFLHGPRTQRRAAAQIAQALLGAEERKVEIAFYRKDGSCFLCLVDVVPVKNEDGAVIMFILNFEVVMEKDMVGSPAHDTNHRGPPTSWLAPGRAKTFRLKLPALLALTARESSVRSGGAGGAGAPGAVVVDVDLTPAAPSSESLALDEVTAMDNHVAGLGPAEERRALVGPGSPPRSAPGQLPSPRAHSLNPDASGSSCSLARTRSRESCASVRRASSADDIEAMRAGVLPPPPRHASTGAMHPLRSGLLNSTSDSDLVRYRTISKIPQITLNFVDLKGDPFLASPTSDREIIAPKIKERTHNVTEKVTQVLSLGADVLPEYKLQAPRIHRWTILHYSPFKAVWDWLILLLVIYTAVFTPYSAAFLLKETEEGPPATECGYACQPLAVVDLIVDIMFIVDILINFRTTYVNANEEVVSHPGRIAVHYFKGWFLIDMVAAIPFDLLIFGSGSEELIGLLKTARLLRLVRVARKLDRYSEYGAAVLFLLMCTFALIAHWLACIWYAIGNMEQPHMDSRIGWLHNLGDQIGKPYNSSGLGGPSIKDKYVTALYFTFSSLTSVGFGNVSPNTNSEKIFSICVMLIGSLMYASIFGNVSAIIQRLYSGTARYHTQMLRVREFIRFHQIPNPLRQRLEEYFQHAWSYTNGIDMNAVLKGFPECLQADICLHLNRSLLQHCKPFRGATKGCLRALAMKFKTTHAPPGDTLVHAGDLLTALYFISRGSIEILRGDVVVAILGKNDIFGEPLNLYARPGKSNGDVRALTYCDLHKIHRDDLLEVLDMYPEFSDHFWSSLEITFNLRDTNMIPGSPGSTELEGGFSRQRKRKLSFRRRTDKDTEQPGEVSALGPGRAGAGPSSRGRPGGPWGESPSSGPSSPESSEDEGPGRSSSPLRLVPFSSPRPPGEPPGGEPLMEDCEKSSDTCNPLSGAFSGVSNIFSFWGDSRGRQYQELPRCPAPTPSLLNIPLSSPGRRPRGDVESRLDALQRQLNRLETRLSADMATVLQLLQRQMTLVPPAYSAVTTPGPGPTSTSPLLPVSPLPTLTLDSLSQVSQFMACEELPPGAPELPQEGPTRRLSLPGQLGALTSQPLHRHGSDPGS

Take `C[C@H](Cn1cnc2c(N)ncnc21)OCP(=O)(O)O` [TENOFOVIR ANHYDROUS]: the AC50 (at Adenosine receptor A1; on Adenosine receptor A2a; on Adenosine receptor A3; in assay [1]; on D(1A) dopamine receptor; in [2]) was greater than 30 µM each time. Also, the AC50 (in assay [3]; at Melanocortin receptor 3; in assay [4]; in assay [5]; in assay [6]; at D(3) dopamine receptor) was greater than 30 µM each time.
As for `COc1cc2c(cc1OC)C1CC(=O)C(CC(C)C)CN1CC2` (centres undefined) [TETRABENAZINE], the AC50 on Adenosine receptor A1 is greater than 30 µM; on Adenosine receptor A2a, greater than 30 µM; at Adenosine receptor A3 it was greater than 30 µM; in assay [1], greater than 30 µM; on D(1A) dopamine receptor it was greater than 30 µM; in [2], 18 µM. In addition, the AC50 (in [3]; at Melanocortin receptor 3; in assay [4]; in assay [5]; in [6]; on D(3) dopamine receptor) was greater than 30 µM each time.
For the compound `CC(C)(CO)c1cc2cc(NC(=O)C3(c4ccc5c(c4)OC(F)(F)O5)CC3)c(F)cc2n1C[C@@H](O)CO` [TEZACAFTOR], the AC50 (at Adenosine receptor A1; on Adenosine receptor A2a; on Adenosine receptor A3; in assay [1]; at D(1A) dopamine receptor; in assay [2]) was greater than 30 µM each time. Moreover, the AC50 (in [3]; at Melanocortin receptor 3; in assay [4]; in [5]; in [6]; on D(3) dopamine receptor) was greater than 30 µM throughout.
For `CN(C)CCN(Cc1ccccc1)c1ccccn1` [TRIPELENNAMINE], the AC50 (at Adenosine receptor A1; at Adenosine receptor A2a; at Adenosine receptor A3; in assay [1]; on D(1A) dopamine receptor; in assay [2]) was greater than 10 µM in each case. The AC50 was 2.8 µM in assay [3]; greater than 10 µM on Melanocortin receptor 3; greater than 30 µM in assay [4]; 13.4 µM in assay [5]; greater than 10 µM in assay [6]; greater than 10 µM on D(3) dopamine receptor.
As to `Cc1c(C)c2c(c(C)c1O)CCC(C)(COc1ccc(CC3SC(=O)NC3=O)cc1)O2` (centres undefined) [TROGLITAZONE], the half-maximal activity concentration (AC50) was greater than 30 µM at Adenosine receptor A1; greater than 30 µM at Adenosine receptor A2a; 8.48 µM on Adenosine receptor A3; greater than 30 µM in [1]; greater than 30 µM at D(1A) dopamine receptor; greater than 30 µM in assay [2]. Besides, the AC50 in assay [3] was greater than 30 µM; at Melanocortin receptor 3, greater than 30 µM; in [4], greater than 30 µM; in assay [5] it was 15 µM; in assay [6] it was 6.19 µM; on D(3) dopamine receptor, greater than 30 µM.
Consider `c1cnc2cc3c(cc2n1)[C@@H]1CNC[C@H]3C1` [VARENICLINE], for which the concentration at half-maximal activity (AC50) (on Adenosine receptor A1; on Adenosine receptor A2a; at Adenosine receptor A3; in [1]; at D(1A) dopamine receptor; in assay [2]) was greater than 30 µM each time. Moreover, the half-maximal activity concentration (AC50) (in assay [3]; at Melanocortin receptor 3; in assay [4]; in assay [5]; in assay [6]; on D(3) dopamine receptor) was greater than 30 µM in each case.
For `Nc1c2c(nc3ccccc13)CCCC2O` (centres undefined) [VELNACRINE], the AC50 (on Adenosine receptor A1; on Adenosine receptor A2a; at Adenosine receptor A3; in assay [1]; at D(1A) dopamine receptor; in assay [2]) was greater than 30 µM throughout. The concentration at half-maximal activity (AC50) was 25 µM in [3]; greater than 30 µM on Melanocortin receptor 3; greater than 30 µM in assay [4]; greater than 30 µM in assay [5]; greater than 30 µM in [6]; greater than 30 µM at D(3) dopamine receptor.
